# From ChEMBL document CHEMBL1201862, “PubChem BioAssay data set” (2004)
# Activity calls are given as the source filed them.
# Assays:
# [1] = Luminescence Cell-Based Dose Retest to Confirm Inhibitors of Cancer Stem Cells. [Related pubchem assays (depositor defined):AID2717, AID2721]; type: functional; settings: Homo sapiens
# [2] = target: T1, Streptokinase A (Streptococcus pyogenes serotype M1, UniProt P10520); assay: S. pyogenes streptokinase expression inhibitors, potency, dose response, plasminogen activation absorbance, OD405 (AID 1914); type: functional, Streptococcus pyogenes M1 GAS;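 also: secreted streptokinase activity via plasminogen activation per viability signal from cell pellet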
# T1 sequence (P10520 whole entry): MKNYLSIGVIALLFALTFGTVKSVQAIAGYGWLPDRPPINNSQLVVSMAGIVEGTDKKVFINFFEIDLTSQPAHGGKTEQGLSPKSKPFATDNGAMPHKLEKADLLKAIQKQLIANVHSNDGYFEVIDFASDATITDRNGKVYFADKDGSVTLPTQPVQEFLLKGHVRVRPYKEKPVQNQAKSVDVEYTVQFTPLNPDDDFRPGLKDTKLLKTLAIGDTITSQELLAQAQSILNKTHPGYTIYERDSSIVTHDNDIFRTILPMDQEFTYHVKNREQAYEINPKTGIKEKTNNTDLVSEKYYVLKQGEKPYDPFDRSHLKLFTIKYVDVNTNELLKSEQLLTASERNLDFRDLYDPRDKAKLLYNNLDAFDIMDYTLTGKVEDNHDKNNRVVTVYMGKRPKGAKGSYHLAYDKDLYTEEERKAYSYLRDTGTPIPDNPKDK
# [3] = test system: Streptococcus sp. 'group A'; assay: growth inhibition of control SK(-) GAS strain, dose response, counter-screen for streptokinase expression inhibitor project, luminescence, kanamycin, BacTiterGlo, confirmation (AID 1900); type: functional, organism-based
# [4] = test system: Streptococcus; assay: Group A Streptococcus viability loss, dose response, counter-screen for streptokinase expression inhibitor project, luminescence, BacTiterGlo (AID 1915); type: functional, organism-based;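 also: potency for reduction of bacterial viability or growth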
# [5] = target: Cytochrome P450 2D6 (Homo sapiens, UniProt P10635);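 also: CYP2D6 member of a cytochrome P450 panel assay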
# [6] = target: T2, Rac GTPase-activating protein 1 (Homo sapiens, UniProt Q9H0H5); assay: MgcRacGAP GTPase-activating activity inhibitors, confirmation, biochemical, ADP Hunter fluorescence, primary and confirmatory (AID 624330); type: functional
# T2 sequence (Q9H0H5 whole entry): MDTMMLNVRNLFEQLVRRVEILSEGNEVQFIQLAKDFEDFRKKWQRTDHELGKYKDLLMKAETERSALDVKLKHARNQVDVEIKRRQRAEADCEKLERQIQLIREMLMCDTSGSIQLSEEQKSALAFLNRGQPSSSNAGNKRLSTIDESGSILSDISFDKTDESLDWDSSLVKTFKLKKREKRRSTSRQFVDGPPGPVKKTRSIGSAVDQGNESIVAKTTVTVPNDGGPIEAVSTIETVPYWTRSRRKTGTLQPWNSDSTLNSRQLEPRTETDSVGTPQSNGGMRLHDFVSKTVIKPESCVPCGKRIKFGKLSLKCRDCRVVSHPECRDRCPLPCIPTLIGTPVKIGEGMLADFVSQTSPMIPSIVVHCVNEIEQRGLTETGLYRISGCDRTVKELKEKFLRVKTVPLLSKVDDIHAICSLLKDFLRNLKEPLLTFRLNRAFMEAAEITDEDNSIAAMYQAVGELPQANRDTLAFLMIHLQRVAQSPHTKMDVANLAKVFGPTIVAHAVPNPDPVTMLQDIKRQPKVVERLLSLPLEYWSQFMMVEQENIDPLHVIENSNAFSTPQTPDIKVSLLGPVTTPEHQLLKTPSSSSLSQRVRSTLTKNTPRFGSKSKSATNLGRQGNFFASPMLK
# [7] = target: T3, Cytochrome P450 1A2 (Homo sapiens, UniProt P05177);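 also: PubChem cytochrome P450 panel assay, CYP1A2 panel member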
# T3 sequence (P05177 whole entry): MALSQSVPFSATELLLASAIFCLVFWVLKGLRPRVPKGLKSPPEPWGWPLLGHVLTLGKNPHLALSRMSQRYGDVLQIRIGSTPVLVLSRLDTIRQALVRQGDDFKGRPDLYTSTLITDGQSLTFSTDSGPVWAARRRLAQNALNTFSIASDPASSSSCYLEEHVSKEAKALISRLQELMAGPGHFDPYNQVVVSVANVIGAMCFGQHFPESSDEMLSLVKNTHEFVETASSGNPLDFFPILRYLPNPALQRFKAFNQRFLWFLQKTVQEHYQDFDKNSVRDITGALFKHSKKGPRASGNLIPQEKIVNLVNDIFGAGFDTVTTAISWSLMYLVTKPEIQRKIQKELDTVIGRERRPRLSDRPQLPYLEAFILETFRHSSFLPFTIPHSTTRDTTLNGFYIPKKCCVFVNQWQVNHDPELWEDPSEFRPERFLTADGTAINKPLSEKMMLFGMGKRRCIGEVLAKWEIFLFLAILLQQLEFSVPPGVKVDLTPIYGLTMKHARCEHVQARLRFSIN
# [8] = target: Cytochrome P450 3A4 (Homo sapiens, UniProt P08684);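 also: CYP3A4 tested as one member of a cytochrome P450 panel screen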
# [9] = target: T4, Replicative DNA helicase DnaB (Mycobacterium tuberculosis, UniProt P9WMR3); assay: DnaB intein splicing inhibitors, dose response, biochemical, cell-free fluorescence (AID 449749); type: functional
# T4 sequence (P9WMR3 whole entry): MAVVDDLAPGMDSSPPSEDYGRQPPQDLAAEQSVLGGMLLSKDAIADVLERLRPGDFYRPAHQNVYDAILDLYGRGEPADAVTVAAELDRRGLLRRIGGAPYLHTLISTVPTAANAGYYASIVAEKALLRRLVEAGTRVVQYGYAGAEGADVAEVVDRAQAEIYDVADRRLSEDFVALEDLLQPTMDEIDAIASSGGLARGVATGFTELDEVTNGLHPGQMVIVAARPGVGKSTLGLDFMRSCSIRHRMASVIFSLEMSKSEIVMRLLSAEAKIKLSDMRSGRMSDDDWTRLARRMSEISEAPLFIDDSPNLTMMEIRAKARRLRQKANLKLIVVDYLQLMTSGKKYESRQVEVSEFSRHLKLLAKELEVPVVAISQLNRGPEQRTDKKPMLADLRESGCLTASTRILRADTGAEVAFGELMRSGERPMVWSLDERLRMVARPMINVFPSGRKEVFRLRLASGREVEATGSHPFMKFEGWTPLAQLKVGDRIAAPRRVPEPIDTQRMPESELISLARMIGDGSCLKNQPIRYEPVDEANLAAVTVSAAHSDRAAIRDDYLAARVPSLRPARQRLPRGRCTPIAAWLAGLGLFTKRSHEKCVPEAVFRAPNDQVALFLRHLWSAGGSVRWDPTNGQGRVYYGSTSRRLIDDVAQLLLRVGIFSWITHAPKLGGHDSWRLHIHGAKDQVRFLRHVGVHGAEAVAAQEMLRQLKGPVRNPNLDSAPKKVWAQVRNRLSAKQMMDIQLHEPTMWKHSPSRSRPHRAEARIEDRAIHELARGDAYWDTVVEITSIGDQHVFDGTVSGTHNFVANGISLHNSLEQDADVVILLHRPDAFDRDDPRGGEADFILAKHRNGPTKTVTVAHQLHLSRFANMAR
# [10] = target: T5, Protein RecA (Mycobacterium tuberculosis, UniProt P9WHJ3); assay: Fluorescence Cell-Free Homogeneous Dose Retest to Identify Inhibitors of RecA-Intein Splicing Activity. [Related pubchem assays (depositor defined):AID2097, AID2223, AID489010, AID492950]; type: functional
# T5 sequence (P9WHJ3 whole entry): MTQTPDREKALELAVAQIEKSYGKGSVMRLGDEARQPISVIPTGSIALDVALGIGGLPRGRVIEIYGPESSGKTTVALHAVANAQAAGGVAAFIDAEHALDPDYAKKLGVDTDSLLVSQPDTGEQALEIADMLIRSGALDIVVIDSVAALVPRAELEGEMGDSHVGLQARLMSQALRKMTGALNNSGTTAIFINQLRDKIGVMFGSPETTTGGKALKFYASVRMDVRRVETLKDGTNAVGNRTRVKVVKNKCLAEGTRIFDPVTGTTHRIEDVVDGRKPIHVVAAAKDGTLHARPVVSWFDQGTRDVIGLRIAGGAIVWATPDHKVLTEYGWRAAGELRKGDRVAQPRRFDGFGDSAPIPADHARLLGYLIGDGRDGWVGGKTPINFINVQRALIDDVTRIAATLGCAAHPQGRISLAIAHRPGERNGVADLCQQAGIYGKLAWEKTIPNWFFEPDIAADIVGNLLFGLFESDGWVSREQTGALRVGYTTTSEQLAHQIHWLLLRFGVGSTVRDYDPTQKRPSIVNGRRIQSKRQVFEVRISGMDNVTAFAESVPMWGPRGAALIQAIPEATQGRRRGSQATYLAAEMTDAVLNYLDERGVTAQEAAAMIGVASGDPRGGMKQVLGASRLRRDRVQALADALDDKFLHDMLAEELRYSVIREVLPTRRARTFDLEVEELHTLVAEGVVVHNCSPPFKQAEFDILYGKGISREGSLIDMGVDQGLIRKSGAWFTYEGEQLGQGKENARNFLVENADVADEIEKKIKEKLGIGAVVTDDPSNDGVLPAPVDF
# [11] = target: Cytochrome P450 2C19 (Homo sapiens, UniProt P33261); assay: Cytochrome panel assay with activity outcomes. Panel member name: p450-cyp2c19 Compounds with AC50 equal or less than 10 uM are considered active; type: functional
# [12] = target: Cytochrome P450 2C9 (Homo sapiens, UniProt P11712)
# Cytochrome P450 2C9, sequence (P11712 whole entry): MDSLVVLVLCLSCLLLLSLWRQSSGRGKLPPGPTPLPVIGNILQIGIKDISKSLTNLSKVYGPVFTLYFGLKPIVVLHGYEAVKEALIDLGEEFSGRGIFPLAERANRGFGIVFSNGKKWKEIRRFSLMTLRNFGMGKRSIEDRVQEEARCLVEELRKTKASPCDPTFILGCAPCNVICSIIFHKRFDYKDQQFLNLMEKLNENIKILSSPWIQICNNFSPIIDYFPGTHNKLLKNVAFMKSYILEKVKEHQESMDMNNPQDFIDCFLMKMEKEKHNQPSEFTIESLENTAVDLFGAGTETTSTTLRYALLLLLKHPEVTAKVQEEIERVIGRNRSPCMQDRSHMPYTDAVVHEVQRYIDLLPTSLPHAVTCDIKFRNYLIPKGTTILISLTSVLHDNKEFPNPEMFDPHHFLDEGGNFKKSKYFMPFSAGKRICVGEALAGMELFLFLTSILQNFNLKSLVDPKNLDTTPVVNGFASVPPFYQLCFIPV
# Cytochrome P450 2D6, sequence (P10635 whole entry): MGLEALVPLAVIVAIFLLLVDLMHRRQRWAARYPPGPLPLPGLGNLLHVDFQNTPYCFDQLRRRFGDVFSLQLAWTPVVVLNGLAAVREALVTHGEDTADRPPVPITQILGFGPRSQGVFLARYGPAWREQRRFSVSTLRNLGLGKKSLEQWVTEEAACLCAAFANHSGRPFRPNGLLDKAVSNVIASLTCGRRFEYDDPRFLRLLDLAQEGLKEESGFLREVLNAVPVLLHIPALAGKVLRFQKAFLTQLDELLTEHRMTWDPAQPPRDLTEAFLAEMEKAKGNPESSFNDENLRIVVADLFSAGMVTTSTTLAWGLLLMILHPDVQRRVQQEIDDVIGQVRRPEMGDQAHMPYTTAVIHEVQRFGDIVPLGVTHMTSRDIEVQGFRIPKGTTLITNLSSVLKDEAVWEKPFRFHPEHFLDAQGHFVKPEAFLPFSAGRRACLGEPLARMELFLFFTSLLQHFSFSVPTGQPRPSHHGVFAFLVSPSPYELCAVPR
# Cytochrome P450 3A4, sequence (P08684 whole entry): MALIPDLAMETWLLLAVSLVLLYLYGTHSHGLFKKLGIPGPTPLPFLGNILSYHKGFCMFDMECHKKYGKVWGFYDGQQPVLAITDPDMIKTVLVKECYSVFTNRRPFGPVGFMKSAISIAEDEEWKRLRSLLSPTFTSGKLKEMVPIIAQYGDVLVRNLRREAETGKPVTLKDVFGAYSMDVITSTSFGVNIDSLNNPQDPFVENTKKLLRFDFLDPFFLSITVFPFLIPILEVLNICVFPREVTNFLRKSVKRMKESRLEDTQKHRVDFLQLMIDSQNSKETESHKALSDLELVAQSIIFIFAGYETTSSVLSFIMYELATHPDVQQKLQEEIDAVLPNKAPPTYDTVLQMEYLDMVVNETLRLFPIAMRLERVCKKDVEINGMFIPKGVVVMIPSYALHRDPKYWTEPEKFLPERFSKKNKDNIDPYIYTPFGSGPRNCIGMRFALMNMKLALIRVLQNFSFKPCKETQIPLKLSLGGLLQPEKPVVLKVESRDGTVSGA
# Cytochrome P450 2C19, sequence (P33261 whole entry): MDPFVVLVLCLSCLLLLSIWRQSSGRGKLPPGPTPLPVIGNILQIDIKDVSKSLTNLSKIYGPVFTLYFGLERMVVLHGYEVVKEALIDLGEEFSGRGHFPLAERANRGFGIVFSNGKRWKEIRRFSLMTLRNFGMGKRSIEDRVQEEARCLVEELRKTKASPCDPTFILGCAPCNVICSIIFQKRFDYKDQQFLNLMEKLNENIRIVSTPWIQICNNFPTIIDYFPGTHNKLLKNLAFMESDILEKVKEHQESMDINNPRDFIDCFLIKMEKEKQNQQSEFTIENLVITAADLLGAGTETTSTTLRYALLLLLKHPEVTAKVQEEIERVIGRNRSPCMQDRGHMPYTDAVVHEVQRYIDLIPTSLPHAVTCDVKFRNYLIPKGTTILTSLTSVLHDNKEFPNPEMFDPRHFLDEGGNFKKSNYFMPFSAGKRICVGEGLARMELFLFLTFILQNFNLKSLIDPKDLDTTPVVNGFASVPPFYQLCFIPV
structure (smiles),measurement,setting,value
c1ccc(-c2cc(-c3ccncc3)nc3ccc4ccccc4c23)cc1,AC50,[1],3.39 µM (active)
same,EC50,[2],> 150 µM (not active)
same,EC50,[3],3.37 µM (active)
same,EC50,[4],8.51 µM (active)
C[C@]12CC[C@@H]3c4ccc(OC(=O)c5ccccc5)cc4CC[C@H]3[C@@H]1CC[C@@H]2O [ESTRADIOL BENZOATE],EC50,[2],2.43 µM (active)
same,EC50,[3],2.24 µM (active)
same,EC50,[4],4.49 µM (active)
O=C(NCc1ccccc1)c1cccc(COc2cccc(Cl)c2)c1,AC50,[5],31.6 µM (inconclusive)
c1cncc(-c2cncnc2NCc2cccs2)c1,AC50,[5],39.8 µM (inconclusive)
CC(C)(C)c1nnc(N/N=C/c2ccc(O)cc2)n(N)c1=O,IC50,[6],123 µM (active)
COc1cccc(-c2cncnc2Nc2ccc(F)cc2)c1,AC50,[5],39.8 µM (inconclusive)
Cc1cc(-c2c(C)[nH]n(-c3ccc(Cl)cc3)c2=O)n[nH]1,EC50,[2],> 150 µM (not active)
Cc1ccccc1C(OCC(O)CN1CCN(CCO)CC1)c1ccccc1 (stereo unspecified),IC50,[6],80.2 µM (active)
CCN(C(=O)Cn1c(=O)oc2ccccc21)c1cccc(C(F)(F)F)c1,AC50,[7],39.8 µM (inconclusive)
same,AC50,[8],7.08 µM (inconclusive)
CC1=CC(C)(C)N(C(=O)CNC2CCCC2)c2cc(C)ccc21,IC50,[6],158 µM (active)
CC1CCC/C(=C\c2ccc(O)cc2)C1=O (stereo unspecified),IC50,[6],26.6 µM (active)
Cc1c(O)ccc(NC(=O)/C=C/c2ccccc2)c1C,IC50,[6],41.8 µM (active)
O=C(CN1CCN(c2ccc(O)cc2)CC1)NCC(=O)Nc1ccc(F)c(F)c1F,IC50,[6],47 µM (active)
CCC(=O)OCc1c(C(F)(F)F)nn(C)c1Sc1ccc(F)cc1,AC50,[7],12.6 µM (inconclusive)
same,AC50,[8],25.1 µM (inconclusive)
CCCCn1c(C)cc2cc(O)ccc21,IC50,[6],26.9 µM (active)
CCOC(=O)c1c(S(=O)(=O)N2CCCCCC2)c(C)n(C)c1C,EC50,[2],> 150 µM (not active)
same,EC50,[3],> 150 µM (not active)
same,EC50,[4],> 150 µM (not active)
Cc1oc2cc(Br)c(O)c(Br)c2c1-c1ccccc1,EC50,[2],> 150 µM (not active)
same,EC50,[3],8.24 µM (active)
same,EC50,[4],8.18 µM (active)
COC(=O)CSc1nnc(C)n1-c1cccc(OC)c1,AC50,[5],3.16 µM (inconclusive)
COc1cccc(Cn2c(=O)cnc3cnc(Oc4cccc(Cl)c4)nc32)c1,AC50,[5],39.8 µM (inconclusive)
Cc1cc(=O)oc2cc(OCC(=O)N3CCN(C(=O)C4COc5ccccc5O4)CC3)ccc12 (stereo unspecified),EC50,[2],> 50 µM (not active)
same,EC50,[3],2.83 µM (active)
same,EC50,[4],10.4 µM (active)
Cc1nc(Nc2ccc(O)cc2)c2c3c(sc2n1)CCCC3,AC50,[9],> 380 µM (inactive)
same,IC50,[6],28.8 µM (active)
same,EC50,[10],125 µM (active)
O=C(CNC(=O)c1ccncc1)N/N=C/c1ccc(O)cc1O,IC50,[6],75.5 µM (active)
O=C(/C(=N\Nc1ccc([N+](=O)[O-])cc1)Sc1nnnn1-c1ccccc1)c1ccccc1,EC50,[2],> 150 µM (not active)
same,EC50,[3],5.19 µM (active)
same,EC50,[4],35.8 µM (active)
O=S(=O)(c1ccccc1)N1CCC2(CCCN(c3ccccc3)C2)CC1,AC50,[5],10 µM (inconclusive)
Cc1ccc(C)c(OCCCCN2CCCCC2)c1,IC50,[6],176 µM (active)
CC(C)(C)OC(=O)[C@H](Cc1ccccc1)NC(=O)c1[nH]cnc1C(=O)Nc1ccc(Cl)cc1,AC50,[1],4.51 µM (active)
same,EC50,[2],21.5 µM (active)
same,EC50,[3],3.71 µM (active)
same,EC50,[4],11.1 µM (active)
Nc1ccccc1Sc1nc2ccccc2[nH]1,EC50,[2],> 150 µM (not active)
same,EC50,[3],21.3 µM (active)
same,EC50,[4],> 150 µM (not active)
N[C@@H](COP(=O)(O)O)C(=O)O [DEXFOSFOSERINE],AC50,[7],25.1 µM (inconclusive)
same,AC50,[11],inconclusive
same,AC50,[8],0.794 µM (inconclusive)
O=C(O)c1cc2cc(OCc3ccccc3)ccc2[nH]1,AC50,[7],6.31 µM (inconclusive)
same,AC50,[12],25.1 µM (inconclusive)
CCC(C)(C)n1nnnc1C(c1cc2cc3c(cc2nc1O)OCO3)N1CCCCC1 (stereo unspecified),AC50,[7],17.8 µM (inconclusive)
same,AC50,[12],0.02 µM (inconclusive)
